{"source": "patent US8106048B2", "about": "“Heterocyclic NF-κB inhibitors” (4SC AG, priority 2004, dated 2012)", "origin": "cited, not measured here", "key": {"20S and 26S proteasome": {"molecular_target": "T1, 20S and 26S proteasome (Homo sapiens, UniProt P28072+P28074+Q99436)", "T1 sequence (P28074 60-263)": "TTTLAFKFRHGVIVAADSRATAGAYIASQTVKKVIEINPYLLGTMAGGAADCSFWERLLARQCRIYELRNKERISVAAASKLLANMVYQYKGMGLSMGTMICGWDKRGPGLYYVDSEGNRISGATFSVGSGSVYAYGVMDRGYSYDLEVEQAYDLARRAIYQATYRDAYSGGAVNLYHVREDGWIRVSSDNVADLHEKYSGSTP", "T1 sequence (P28072 1-239)": "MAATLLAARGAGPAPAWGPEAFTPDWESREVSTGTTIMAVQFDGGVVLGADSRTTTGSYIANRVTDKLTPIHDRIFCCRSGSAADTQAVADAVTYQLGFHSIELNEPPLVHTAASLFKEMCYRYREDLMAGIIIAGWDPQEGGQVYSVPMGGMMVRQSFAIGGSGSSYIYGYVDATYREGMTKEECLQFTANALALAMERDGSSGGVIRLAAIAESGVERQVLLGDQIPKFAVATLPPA", "T1 sequence (Q99436 44-277)": "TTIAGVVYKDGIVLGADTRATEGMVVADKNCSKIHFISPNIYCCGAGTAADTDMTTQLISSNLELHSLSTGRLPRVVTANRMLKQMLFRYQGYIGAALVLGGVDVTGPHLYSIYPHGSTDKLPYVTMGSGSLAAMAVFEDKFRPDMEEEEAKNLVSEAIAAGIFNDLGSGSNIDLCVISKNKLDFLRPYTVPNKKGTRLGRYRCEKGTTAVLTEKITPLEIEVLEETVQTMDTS", "conditions": "cited from earlier work"}, "TNF-α": {"test_system": "TNF-α", "conditions": "mouse; cited from earlier work"}, "NF-κB": {"test_system": "NF-κB", "conditions": "cited from earlier work"}}}
{"smiles": "CC(=O)N[C@@H](CSC(=O)[C@]1([C@@H](O)C(C)C)NC(=O)[C@H](C)[C@@H]1O)C(=O)O", "note": "[Lactacystin]", "values": [{"measurement": "inhibition of 20S and 26S proteasome", "setting": "20S and 26S proteasome", "value": "inhibits both, 20S and 26S proteasome"}, {"measurement": "inhibitory activity on proteasome peptidase activities", "setting": "20S and 26S proteasome; trypsin-like, chymotrypsin-like, peptidylglutamylpeptide hydrolyzing", "value": "inhibitory activity on trypsin-like, chymotrypsin-like and peptidylglutamylpeptide hydrolyzing activities"}]}
{"smiles": "CCN(CC)CCNC(=O)c1ccc(N)c(Cl)c1", "note": "[3-chloroprocainamide]", "values": [{"measurement": "lipopolysaccharide-induced TNF-α production", "setting": "TNF-α", "value": "blocked lipopolysacharide-induced TNF-α production in mouse in a dose dependent manner"}, {"measurement": "inhibition of NF-κB transcriptional activation", "setting": "NF-κB", "value": "inhibitors of NF-κB transcritional activation"}]}
{"smiles": "S=C(S)N1CCCC1", "note": "[pyrrolidine dithiocarbamate]", "values": [{"measurement": "lipopolysaccharide-induced TNF-α production", "setting": "TNF-α", "value": "blocked lipopolysacharide-induced TNF-α production in mouse in a dose dependent manner"}, {"measurement": "inhibition of NF-κB transcriptional activation", "setting": "NF-κB", "value": "inhibitors of NF-κB transcritional activation"}]}
